Test results from patent publication US20180353460A1, “METHODS OF TREATING UROLOGICAL DISORDERS USING SARMs” (priority 2014, published 2018).
Where two headings read alike, the source gives them in different places.

What was measured:
levator ani muscle [1] = assay: Hershberger assays of compounds H-1 to H-4; format: in vivo, rat; conditions: calculated in Win Non-Lin
Method: FIG. 3 depicts results of Hershberger assays of compounds of the invention as described in Example 17. AUC is area under the concentration-time curve.
Hershberger assays as described above for Formulas VIII-XIV were also performed on compounds H-1, H-2, H-3, & H-4, as reported in FIG. 3, along with AR binding data in some cases in Table 11. The reported Emax values were calculated in Win Non-Lin®.

AR = biological target: T1, AR (Homo sapiens, UniProt P10275); assay: biochemical; format: binding
T1 sequence (P10275 1-920): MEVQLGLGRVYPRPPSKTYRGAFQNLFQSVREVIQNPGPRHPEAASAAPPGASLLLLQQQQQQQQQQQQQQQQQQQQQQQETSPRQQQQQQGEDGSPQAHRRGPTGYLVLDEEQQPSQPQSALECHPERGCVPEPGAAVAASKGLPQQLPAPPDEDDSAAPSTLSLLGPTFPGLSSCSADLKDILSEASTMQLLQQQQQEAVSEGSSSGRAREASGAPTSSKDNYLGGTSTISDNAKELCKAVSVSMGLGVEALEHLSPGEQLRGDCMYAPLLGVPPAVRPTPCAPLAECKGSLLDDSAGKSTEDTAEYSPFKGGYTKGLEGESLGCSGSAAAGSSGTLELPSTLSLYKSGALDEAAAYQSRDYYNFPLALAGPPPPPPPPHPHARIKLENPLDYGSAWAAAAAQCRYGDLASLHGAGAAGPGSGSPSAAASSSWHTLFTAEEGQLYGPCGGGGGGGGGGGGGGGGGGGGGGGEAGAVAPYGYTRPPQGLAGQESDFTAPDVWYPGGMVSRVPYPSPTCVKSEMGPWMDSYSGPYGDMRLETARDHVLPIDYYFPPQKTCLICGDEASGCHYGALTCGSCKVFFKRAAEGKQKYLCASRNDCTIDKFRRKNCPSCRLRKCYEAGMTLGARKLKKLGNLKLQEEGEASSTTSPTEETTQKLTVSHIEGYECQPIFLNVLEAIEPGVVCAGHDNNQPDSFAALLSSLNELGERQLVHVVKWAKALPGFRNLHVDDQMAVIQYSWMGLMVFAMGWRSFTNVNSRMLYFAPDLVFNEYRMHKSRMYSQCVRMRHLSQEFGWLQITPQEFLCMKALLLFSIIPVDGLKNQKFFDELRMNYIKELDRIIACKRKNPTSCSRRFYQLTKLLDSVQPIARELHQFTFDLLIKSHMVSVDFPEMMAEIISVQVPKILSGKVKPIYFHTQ

levator ani muscle [2] = assay: Levator ani muscle weight in castrated rats treated subcutaneously for 14 days; format: in vivo, rat; conditions: castrated Sprague Dawley rats, subcutaneous, 3 mg/day
Excerpt: At sacrifice, organs were weighed and expressed as raw organ weights. Values are expressed as average±S.D. Increased size and strength of pelvic floor muscles is one mechanism by which SARMs are believed to affect UI.
At sacrifice, organs were weighed and expressed as raw organ weights. Values are expressed as average±S.D.

[3] = system: prostate, seminal vesicles and levator ani muscle; assay: Androgenic and anabolic activity in castrated immature male rats, subcutaneous osmotic pumps, 14 days; format: in vivo, rat
Method: Immature male Sprague-Dawley rats, weighing 90 to 100 g, were purchased from Harlan Biosciences (Indianapolis, Ind.). The animals were maintained on a 12 hour light-dark cycle with food and water available ad libitum.
Rats were randomly distributed into treatment groups groups. One day prior to the start of drug treatment, animals were individually removed from the cage, weighed and anesthetized with an intraperitoneal dose of ketamine/xylazine (87/13 mg/kg; approximately 1 mL per kg). When appropriately anesthetized (i.e., no response to toe pinch), the animals' ears were marked for identification purposes. Animals were then placed on a sterile pad and their abdomen and scrotum washed with betadine and 70% alcohol. The testes were removed via a midline scrotal incision, with sterile suture being used to ligate supra-testicular tissue prior to surgical removal of each testis. The surgical wound site was closed with sterile stainless steel wound clips, and the site cleaned with betadine. The animals were allowed to recover on a sterile pad (until able to stand) and then returned to their cage.
Twenty-four hours later, animals were re-anesthetized with ketamine/xylazine, and an Alzet osmotic pump(s) (model 2002) was placed subcutaneouly in the scapular region. In this instance, the scapular region was shaved and cleaned (betadine and alcohol) and a small incision (1 cm) made using a sterile scalpel. The osmotic pump was inserted and the wound closed with a sterile stainless steel wound clip. Animals were allowed to recover and were returned to their cage. Osmotic pumps contained the appropriate treatment dissolved in polyethylene glycol 300 (PEG300). Osmotic pumps were filled with the appropriate solution one day prior to implantation. Animals were monitored daily for signs of acute toxicity to drug treatment (e.g., lethargy, rough coat).
After 14 days of drug treatment, rats were anesthetized with ketamine/xylazine. Animals were then sacrificed by exsanguinations under anesthesia. A blood sample was collected by venipuncture of the abdominal aorta, and submitted for complete blood cell analysis. A portion of the blood was placed in a separate tube, centrifuged at 12,000 g for 1 minute, and the plasma layer removed and frozen at −20° C. The ventral prostates, seminal vesicles, levator ani muscle, liver, kidneys, spleen, lungs, and heart were removed, cleared of extraneous tissue, weighed, and placed in vials containing 10% neutral buffered formalin. Preserved tissues were sent for histopathological analysis.
For data analysis, the weights of all organs were normalized to body weight, and analyzed for any statistical significant difference by single-factor ANOVA. The weights of prostate and seminal vesicle were used as indexes for evaluation of androgenic activity, and the levator ani muscle weight was used to evaluate the anabolic activity.

ovariectomized rat model = conditions: cited from earlier work
[4] = system: female rats with experimentally induced stress urinary incontinence; conditions: rat models of SUI; cited from earlier work
[5] = system: women with stress urinary incontinence; conditions: cited from earlier work; for median incontinence episode frequency decreased: placebo 41%
[6] = castrated rats, 0.10 mg/day, 14 days
[7] = castrated rats, 0.50 mg/day, 14 days
[8] = castrated rats, 0.75 mg/day, 14 days
[9] = castrated rats, 1.00 mg/day, 14 days
[10] = compared with testosterone propionate
[11] = compared with the vehicle control

C[C@](O)(COc1ccc(F)cc1)C(=O)Nc1ccc([N+](=O)[O-])c(C(F)(F)F)c1 [Compound H-1]
Emax in levator ani muscle (levator ani muscle [1]): 75 ± 4 % of intact control

C[C@](O)(COc1ccc(Cl)cc1)C(=O)Nc1ccc([N+](=O)[O-])c(C(F)(F)F)c1 [Compound H-2]
Emax in levator ani muscle (levator ani muscle [1]): 136 ± 9 % of intact control

C[C@](O)(COc1ccc(Br)cc1)C(=O)Nc1ccc([N+](=O)[O-])c(C(F)(F)F)c1 [Compound H-3]
Ki (AR; read-out: Ki): 13 ± 2 nM | Emax in levator ani muscle (levator ani muscle [1]): 64 ± 4 % of intact control

C[C@](O)(COc1ccc(I)cc1)C(=O)Nc1ccc([N+](=O)[O-])c(C(F)(F)F)c1 [Compound H-4]
Emax in levator ani muscle (levator ani muscle [1]): 95 ± 7 % of intact control

C[C@](O)(COc1ccc(F)cc1)C(=O)Nc1ccc(C#N)c(C(F)(F)F)c1 [Compound X, (S)—N-(4-Cyano-3-(trifluoromethyl)phenyl)-3-(4-fluorophenoxy)-2-hydroxy-2-methylpropanamide]
Ki (AR; read-out: binding affinity): 3.3 ± 0.08 nM | levator ani muscle weight (levator ani muscle [2]): elicits hypertrophy of the levator ani muscle | Levator Ani organ weight (Mean ± S.D.) [3, 6]: 54.9 ± 5.77 % of intact | Prostate organ weight (Mean ± S.D.) [3, 6]: 6.4 ± 0.82 % of intact | Seminal Vesicles organ weight (Mean ± S.D.) [3, 6]: 8.8 ± 1.18 % of intact | Levator Ani organ weight (Mean ± S.D.) [3, 7]: 55.0 ± 9.23 % of intact | Prostate organ weight (Mean ± S.D.) [3, 7]: 6.2 ± 0.56 % of intact | Seminal Vesicles organ weight (Mean ± S.D.) [3, 7]: 9.3 ± 1.57 % of intact | Levator Ani organ weight (Mean ± S.D.) [3, 8]: 68.9 ± 8.46 % of intact | Prostate organ weight (Mean ± S.D.) [3, 8]: 7.6 ± 0.74 % of intact | Seminal Vesicles organ weight (Mean ± S.D.) [3, 8]: 9.8 ± 3.65 % of intact | Levator Ani organ weight (Mean ± S.D.) [3, 9]: 75.2±9.51 % of intact | Prostate organ weight (Mean ± S.D.) [3, 9]: 8.7±1.39 % of intact | Seminal Vesicles organ weight (Mean ± S.D.) [3, 9]: 10.7±0.91 % of intact

C[C@](O)(COc1ccc(Cl)cc1)C(=O)Nc1ccc(C#N)c(C(F)(F)F)c1 [Compound XI, (S)—N-(4-Cyano-3-(trifluoromethyl)phenyl)-3-(4-chlorophenoxy)-2-hydroxy-2-methylpropanamide]
Ki (AR; read-out: binding affinity): 3.4 ± 0.08 nM | dose able to maintain levator ani muscle weight of castrated animals at the level of intact animals ([3]; castrated rats, 14 days): 0.3 mg/day | weights of prostate, seminal vesicle and levator ani muscle ([3]; castrated rats, 14 days, FIG. 2): dose-dependent increases in prostate, seminal vesicle and levator ani muscle weights | potency and intrinsic activity in increasing the weight of levator ani muscle [3, 10]: greater potency and intrinsic activity | potency and intrinsic activity in increasing the weights of prostate and seminal vesicle [3, 10]: lower potency and intrinsic activity

C[C@]12CCC(=O)C[C@@H]1CC[C@@H]1[C@@H]2CC[C@]2(C)[C@@H](O)CC[C@@H]12 [DHT, dihydrotestosterone, reference compound]
levator ani muscle weight (levator ani muscle [2]): elicits hypertrophy of the levator ani muscle

C[C@H](Nc1ccc(C#N)c(Cl)c1Cl)C(C)(C)O [GSK2849466A]
increase of amplitude of urethral responses during sneezing (AURS) (ovariectomized rat model; [11]): 74% | increase of urethral baseline pressure (UBP) (ovariectomized rat model; [11]): 64% | rats with fluid leakage during sneezing (ovariectomized rat model; vehicle group 8/8): 1/8

C[C@]12CC[C@H]3[C@@H](CCC4=CC(=O)CC[C@@]43C)[C@@H]1CC[C@@H]2O [Testosterone, testosterone]
leak point pressures and size of myofibers [4]: improve leak point pressures and significantly increase the size of myofibers

CNCC[C@H](Oc1cccc2ccccc12)c1cccs1 [duloxetine]
reduction in incontinence episode frequency ([5]; Dmochowski et al., placebo 27%): 50% | median incontinence episode frequency decreased ([5]; duloxetine 20 mg/day): 54% | median incontinence episode frequency decreased ([5]; duloxetine 40 mg/day): 59% | median incontinence episode frequency decreased ([5]; duloxetine 80 mg/day): 64%
